Here are results for one substance from patent US8258116B2, “Combination therapy for the treatment of HCV infection” (Vertex Pharmaceuticals Incorporated, priority 2007, dated 2012).

For assay [1], the system named is HCV replicon Wild Type (mADE). The assay can be described thus: 2-Day HCV Replicon IC50 Assay, wild type replicon. The assay is classed as cell-based. How it is done:
(§1) Huh-7 cells were propagated in Dulbecco's modified Eagle's medium (DMEM, JRH Biosciences, Lenexa, Kans.) supplemented with 10% heat-inactivated FBS (fetal bovine serum), 2 mM L-glutamine, and nonessential amino acids (JRH). The cells were transfected with an in vitro transcribed HCV replicon RNA identical to replicon 1377neo/NS3-3′/wt as described by Lohmann et al. (1999). Stable cell clones were selected and maintained in the presence of 250 μg/mL G418 (Invitrogen, Carlsbad, Calif.). […] The HCV NS3 protease variant replicons were constructed in the background of the mADE wild-type replicon as described previously [Chao Lin et al., “In Vitro Resistance Studies of Hepatitis C Virus Serine Protease Inhibitors, VX-950 and BILN 2061: Structural Analysis Indicates Different Resistance Mechanisms,” Journal of Biological Chemistry, 279(17); pp. 17508-17514 (2004)]. The replicon cells were propagated in DMEM supplemented with 10% FBS, 2 mM L-glutamine, nonessential amino acids, and 250 μg/mL G418. The cells were split twice per week in fresh media upon reaching confluence. There are approximately 200-300 copies of HCV RNA per 24-2 replicon cell.
(§2) HCV replicon RNA from cells was measured using the Quantigene Discover XL kit (Panomics Inc., Fremont Calif.) as per the manufacturer's instructions. Briefly, compound-treated replicon cells were lysed and immobilized on to capture plates using HCV specific oligonucleotides (designed based on the 5′ UTR region of HCV 1b genome sequence AJ238799 in the GenBank database) over night and the relative amounts of captured RNA was measured using oligonucleotide probe sets as per the manufacturer's instructions.
(§3) On the day prior to the assay, 10,000 replicon cells were plated per well of a 96-well plate and allowed to attach and grow overnight in DMEM (Invitrogen, Carlsbad, Calif.) supplemented with 10% heat-inactivated FBS (JRH Biosciences, Lenexa, Kans.), 2 mM L-glutamine (Invitrogen), nonessential amino acids (Invitrogen) and 250 μg/ml G418 (Invitrogen). Next day, the medium was removed and antiviral agents that were serially diluted in DMEM containing 2% FBS and 0.5% DMSO (Sigma Chemical Co., St. Louis, Mo.) without G418, was added. The replicon cells were incubated with the antiviral agents for 48 h. HCV replicon RNA from cells was measured using the Quantigene Discover XL kit (Panomics Inc., Fremont Calif.) as per the manufacturer's instructions. Briefly, compound-treated replicon cells were lysed and immobilized onto capture plates using HCV specific oligonucleotides overnight and the relative amounts of captured RNA was measured using oligonucleotide probe sets as per the manufacturer's instructions. Unless indicated otherwise, each data point represents the average of three replicates. The IC50 is the concentration of the compound at which the HCV replicon RNA level in cells is reduced by 50% as compared to the untreated replicon cell controls. To monitor the effect of compounds on cell proliferation or cell viability, replicon cells were treated with serially diluted compounds for 48 h, after which cell viability was determined using a CellTiter Glo assay (Promega, Madison, Wis.). Each CC50 is derived from at least two replicates and is the concentration of the compound at which the number of viable cells is reduced by 50% as compared to untreated cell controls. The IC50 and CC50 was determined using 4-parameter curve fitting in the SoftMax Pro program (Molecular Devices, Sunnyvale, Calif.).
(§4) The sensitivity of NS3 protease variants to ribavirin and interferon was assessed in a 2-Day HCV Replicon IC50 Assay.

Assay [2] relates to HCV NS3 protease variant replicon R155K. As to the kind of experiment: microbe, parasite or virus in culture. It counts as cell-based. The protocol: as §1, §2, §3, §4
Assay [3] concerns HCV NS3 protease variant replicon R155M. The assay can be described thus: microbe, parasite or virus in culture. The assay is classed as cell-based. The protocol:
as §1, §2, §3, §4

The subject of assay [4] is HCV NS3 protease variant replicon R155T. As to the kind of experiment: microbe, parasite or virus in culture. It counts as cell-based. How it is done: as §1, §2, §3, §4
Assay [5] relates to HCV NS3 protease variant replicon T54A. The assay can be described thus: microbe, parasite or virus in culture. It counts as cell-based. The protocol:
as §1, §2, §3, §4

Assay [6] concerns HCV NS3 protease variant replicon V36A-R155K. The assay can be described thus: microbe, parasite or virus in culture. The assay is classed as cell-based. How it is done: as §1, §2, §3, §4
Assay [7] has as its system HCV NS3 protease variant replicon V36A-R155T. As to the kind of experiment: microbe, parasite or virus in culture. It counts as cell-based. The protocol:
as §1, §2, §3, §4

Assay [8] concerns HCV NS3 protease variant replicon V36A. The assay can be described thus: microbe, parasite or virus in culture. The assay is classed as cell-based. The protocol: as §1, §2, §3, §4
The subject of assay [9] is HCV NS3 protease variant replicon V36M+R155K. The assay can be described thus: microbe, parasite or virus in culture. The assay is classed as cell-based. How it is done: as §1, §2, §3, §4
Assay [10] relates to HCV NS3 protease variant replicon V36M-R155T. As to the kind of experiment: microbe, parasite or virus in culture. It counts as cell-based. How it is done: as §1, §2, §3, §4
Assay [11] deals with HCV NS3 protease variant replicon V36M. As to the kind of experiment: microbe, parasite or virus in culture. It counts as cell-based. The protocol:
as §1, §2, §3, §4

Assay [12] concerns HCV NS3 protease variant replicon A156T. The settings on record: A156T replicon versus wild-type (Lin et al., 2005); cited from earlier work.
The subject of assay [13] is HCV NS3 protease variant replicon A156V. Conditions: A156V replicon versus wild-type (Lin et al., 2005); cited from earlier work.

IFN-α: the “Avg. IC50” value in assay [1] (IFN-α, Wild Type (mADE) replicon) turned out to be 11.6 ± 1.1 units/ml; in assay [2] (IFN-α, R155K replicon), 15.2 ± 12.3 units/ml; in assay [3] (IFN-α, R155M replicon), 4.9 ± 1.0 units/ml; in assay [4] (IFN-α, R155T replicon) it was 4.8 ± 3.3 units/ml; in assay [5] (IFN-α, T54A replicon), 3.9 ± 0.5 units/ml; in assay [6] (IFN-α, V36A-R155K replicon), 6.8 ± 0.5 units/ml. The “Avg. IC50” value was 3.9 ± 2.1 units/ml in assay [7] (IFN-α, V36A-R155T replicon); 10.3 ± 6.0 units/ml in assay [8] (IFN-α, V36A replicon); 10.1 ± 5.9 units/ml in assay [9] (IFN-α, V36M-R155K replicon); 3.1 ± 0.2 units/ml in [10] (IFN-α, V36M-R155T replicon); 11.3 ± 5.9 units/ml in assay [11] (IFN-α, V36M replicon). Also, the “Fold Change” value in assay [1] (Wild Type replicon, ratio of IC50 to Wild type IC50 for the same inhibitor) was determined as 1.0; in assay [2] (R155K, ratio of mutant IC50 to Wild type IC50 for the same inhibitor), 1.3; in [3] (R155M, ratio of mutant IC50 to Wild type IC50 for the same inhibitor) it was 0.4; in assay [4] (R155T, ratio of mutant IC50 to Wild type IC50 for the same inhibitor), 0.4; in [5] (T54A, ratio of mutant IC50 to Wild type IC50 for the same inhibitor), 0.3; in assay [6] (V36A-R155K, ratio of mutant IC50 to Wild type IC50 for the same inhibitor) it was 0.6. The “Fold Change” value in assay [7] (V36A-R155T, ratio of mutant IC50 to Wild type IC50 for the same inhibitor) came out at 0.3; in assay [8] (V36A, ratio of mutant IC50 to Wild type IC50 for the same inhibitor), 0.9; in assay [9] (V36M-R155K, ratio of mutant IC50 to Wild type IC50 for the same inhibitor) it was 0.9; in assay [10] (V36M-R155T, ratio of mutant IC50 to Wild type IC50 for the same inhibitor), 0.3; in assay [11] (V36M, ratio of mutant IC50 to Wild type IC50 for the same inhibitor) it was 1.0. Moreover, the sensitivity of replicon entry in assay [12] and in assay [13] was “comparable to the wild-type” each time.
